According to EP0700399B1, “36-DERIVATIVES OF RIFAMYCINS AND THEIR USE AS ANTIMICROBIAL AGENTS” (GRUPPO LEPETIT S.P.A., priority 1993, dated 1994):

Key:
[1] = tested on: Bacteroides fragilis ATCC 23745; test: MIC by broth microdilution; assay type: cell-based; conditions: internal code L1010, anaerobic, 48 hours
[2] = tested on: Pseudomonas aerug. ATCC10145; test: MIC by broth microdilution; assay type: cell-based, Pseudomonas aeruginosa; conditions: internal code L4; for MIC: Pseudomonas, ATCC10145, read-out: MIC of the compounds
Staph. aureus rifa-r^(2) = test: MIC by broth microdilution; assay type: cell-based; conditions: for MIC of the compounds: internal code L1282, rifampicin resistant strain, highly resistant; for MIC: Staphylococcus aureus, read-out: MIC of the compounds
Neisseria gonorrhoeae = test: MIC by broth microdilution; assay type: cell-based; conditions: internal code L997, 5% carbon dioxide, 48 hours; for MIC: Neisseria gonorrhoeae, read-out: MIC of the compounds
[3] = tested on: Staph. epidermidis ATCC 12228; test: MIC by broth microdilution; assay type: cell-based; conditions: internal code L147; for MIC: Staphylococcus epidermidis, ATCC12228, read-out: MIC of the compounds
Staph. aureus rifa-r^(1) = test: MIC by broth microdilution; assay type: cell-based; conditions: for MIC of the compounds: internal code L721, rifampicin resistant strain, moderately resistant; for MIC: Staphylococcus aureus, read-out: MIC of the compounds
[4] = tested on: Staph. haemolyticus rifa-r^(2); test: MIC by broth microdilution; assay type: cell-based; conditions: for MIC of the compounds: internal code L602, rifampicin resistant strain, highly resistant; for MIC: Staphylococcus haemolyticus, read-out: MIC of the compounds
[5] = tested on: Propionibact. acnes ATCC 6919; test: MIC by broth microdilution; assay type: cell-based, Propionibacterium acnes; conditions: internal code L1014, anaerobic, 48 hours; for MIC: Cutibacterium acnes, ATCC6919, read-out: MIC of the compounds
[6] = tested on: Haemoph. influenzae ATCC 19418; test: MIC by broth microdilution; assay type: cell-based, Haemophilus influenzae; conditions: internal code L970, 5% carbon dioxide, 48 hours; for MIC: Haemophilus influenzae, ATCC19418, read-out: MIC of the compounds
[7] = tested on: Esch. coli K12 hyperpermeable; test: MIC by broth microdilution; assay type: cell-based, Escherichia coli; conditions: internal code G1640; hyperpermeable
Streptococcus pyogenes = test: MIC by broth microdilution; assay type: cell-based; conditions: internal code L49; for MIC: Streptococcus pyogenes, read-out: MIC of the compounds
[8] = tested on: Esch. coli K12 rifa-r^(1); test: MIC by broth microdilution; assay type: cell-based, Escherichia coli; conditions: internal code G1064; rifampicin resistant strain, moderately resistant
[9] = tested on: Proteus vulgaris ATCC 881; test: MIC by broth microdilution; assay type: cell-based; conditions: internal code L79; for MIC: Proteus vulgaris, ATCC881, read-out: MIC of the compounds
Escherichia coli = test: MIC by broth microdilution; assay type: cell-based; conditions: internal code L47; for MIC: Escherichia coli, read-out: MIC of the compounds
Staphylococcus aureus = test: MIC by broth microdilution; assay type: cell-based; conditions: internal code L165; for MIC: Staphylococcus aureus, read-out: MIC of the compounds
Strept. pneumoniae = test: MIC by broth microdilution; assay type: cell-based; conditions: internal code L44; for MIC: Streptococcus pneumoniae, read-out: MIC of the compounds
[10] = tested on: Enterococc. faecalis ATCC 7080; test: MIC by broth microdilution; assay type: cell-based, Enterococcus faecalis; conditions: internal code L149; for MIC: Enterococcus faecalis, ATCC7080, read-out: MIC of the compounds
[11] = tested on: Bacteroides fragilis ATCC 25285; test: MIC by broth microdilution; assay type: cell-based; conditions: internal code L1011, anaerobic, 48 hours; for MIC: Bacteroides fragilis, ATCC25285, read-out: MIC of the compounds
Staph. aureus Smith = test: MIC by broth microdilution; assay type: cell-based; conditions: internal code L819; for MIC: Staphylococcus aureus, read-out: MIC of the compounds
[12] = tested on: Staphylococcus aureus Smith (Int. code L 819); test: Experimental septicemia in mice; assay type: in vivo; conditions: Staphylococcus aureus, sc, 168 h; subcutaneous, treated once immediately after infection, survival on the 7th day; read-out: ED50 SC route
Procedure: Some compounds of the invention were also tested in experimental septicemia in mice infected with Staphylococcus aureus Smith (Int. code L 819). For this purpose, groups of five mice were infected intraperitoneally with about 1 x 10^6 CFU of S. aureus Smith suspended in 0.5 ml of Difco bacteriological mucin. Untreated animals died within 48 hours. The other animals were treated once immediately after infection. On the 7th day the value of ED50 (expressed in mg/kg) was calculated by the method of Spearman-[…]., Statistical method in biological assay, page 254, C. Griffin Ltd., London, 1952), on the basis of the percentage of animals surviving at each dose.

Molecule | MIC of the compounds [2] [µg/mL] | MIC of the compounds (Staph. aureus rifa-r^(2)) [µg/mL] | MIC of the compounds (Neisseria gonorrhoeae) [µg/mL] | MIC of the compounds [3] [µg/mL] | MIC of the compounds (Staph. aureus rifa-r^(1)) [µg/mL] | MIC of the compounds [4] [µg/mL] | MIC [2] [µg/mL] | MIC (Staph. aureus rifa-r^(2)) [µg/mL] | MIC (Neisseria gonorrhoeae) [µg/mL] | MIC [3] [µg/mL] | MIC (Staph. aureus rifa-r^(1)) [µg/mL] | MIC [4] [µg/mL] | MIC [5] [µg/mL] | MIC [6] [µg/mL] | MIC (Streptococcus pyogenes) [µg/mL] | MIC [9] [µg/mL] | MIC (Escherichia coli) [µg/mL] | MIC (Staphylococcus aureus) [µg/mL] | MIC (Strept. pneumoniae) [µg/mL] | MIC [10] [µg/mL] | other results
36-Bromo-2'-(diethylamino)rifamycin P [Compound C9] | 16 | > 128 | 0.5 | 0.06 | 8 | ≥ 128 |  |  |  |  |  |  |  |  |  |  |  |  |  |  | MIC of the compounds [1]: 0.13 µg/mL; MIC of the compounds [5]: 0.06 µg/mL; MIC of the compounds [6]: 0.25 µg/mL; MIC of the compounds [7]: 2 µg/mL; MIC of the compounds (Streptococcus pyogenes): 0.13 µg/mL; MIC of the compounds [8]: > 128 µg/mL; MIC of the compounds [9]: 32 µg/mL; MIC of the compounds (Escherichia coli): 16 µg/mL; MIC of the compounds (Staphylococcus aureus): 0.06 µg/mL; MIC of the compounds (Strept. pneumoniae): 0.13 µg/mL; MIC of the compounds [10]: 2 µg/mL
36-{[1-Ethyl-1,4-dihydro-1-methyl-4-oxo-1,8-naphthyridin-3-yl)carbonyloxy}-3-{[(4-methyl-1-piperazinyl)imino]methyl}rifamycin SV [Compound C27] | 32 | 16 | 0.13 | 0.016 | 0.25 | 16 |  |  |  |  |  |  |  |  |  |  |  |  |  |  | MIC of the compounds [5]: 0.03 µg/mL; MIC of the compounds [6]: 0.25 µg/mL; MIC of the compounds [11]: 0.13 µg/mL; MIC of the compounds (Streptococcus pyogenes): 0.008 µg/mL; MIC of the compounds [9]: 16 µg/mL; MIC of the compounds (Escherichia coli): 32 µg/mL; MIC of the compounds (Staph. aureus Smith): 0.016 µg/mL; MIC of the compounds (Staphylococcus aureus): 0.03 µg/mL; MIC of the compounds (Strept. pneumoniae): 0.008 µg/mL; MIC of the compounds [10]: 2 µg/mL
CCn1cc(C(=O)OCC(=O)O[C@H]2[C@H](C)[C@H](O)[C@H](C)[C@@H](O)[C@@H](C)/C=C/C=C(/C)C(=O)NC3=CC(=O)c4c(c(O)c(C)c5c4C(=O)[C@@](C)(O/C=C/[C@H](OC)[C@H]2C)O5)C3=O)c(=O)c2cc(F)c(N3CCN(C)CC3)cc21 [Compound C23, 36-{2-[1-Ethyl-6-fluoro-1,4-dihydro-7-(4-methyl-1-piperazinyl)-4-oxo-3-quinolinyl]carbonyloxy} rifamycin S] |  |  |  |  |  |  | > 128 | 1 | 8 | 0.06 | 0.06 | 4 | 2 | 2 | 0.004 | 128 | 128 | 0.06 | 0.004 | 0.13 | MIC ([1]; Bacteroides fragilis, ATCC23745, read-out: MIC of the compounds): 8 µg/mL; ED50 [12]: 32.9 mg/kg
CO[C@H]1/C=C/O[C@@]2(C)Oc3c(C)c(O)c4c(O)c(c(C=NN5CCN(C)CC5)c(O)c4c3C2=O)NC(=O)/C(C)=C\C=C\[C@H](C)[C@H](O)[C@@H](C)[C@@H](O)[C@@H](C)[C@H](OC(=O)COC(=O)c2cn(C3CC3)c3cc(-c4cc(C)nc(C)c4)c(F)cc3c2=O)[C@@H]1C [Compound C29, 36-{[1-Cyclopropyl-6-fluoro-1,4-dihydre-7-(2,6-dimethyl-4-pyridinyl)-4-oxo-3-quinolinyl]-carbonyloxy}-3-{[(4-methyl-1-piperazinyl)imino]-methyl}rifamycin SV] |  |  |  |  |  |  | > 128 | 2 | 0.25 | 0.03 | 0.5 | 8 | 0.06 | 0.25 | 0.016 | 128 | 16 | 0.03 | 0.016 | 2 | MIC [11]: 0.13 µg/mL; MIC (Staph. aureus Smith): 0.03 µg/mL
CCn1cc(C(=O)OCC(=O)O[C@H]2[C@H](C)[C@H](O)[C@H](C)[C@@H](O)[C@@H](C)/C=C/C=C(/C)C(=O)Nc3c(C=NN4CCN(C)CC4)c(O)c4c5c(c(C)c(O)c4c3O)O[C@](C)(O/C=C/[C@H](OC)[C@H]2C)C5=O)c(=O)c2cnc(N3CCN(C)CC3)nc21 [Compound C28] |  |  |  |  |  |  | 128 | 2 | 0.25 | 0.06 | 0.13 | 4 | 0.06 | 2 | 0.016 | 64 | 64 | 0.06 | 0.008 | 8 | MIC [11]: 1 µg/mL; MIC (Staph. aureus Smith): 0.06 µg/mL
